Consider one compound from patent US10413535B2, “Pharmaceutical compositions comprising an integrin ALPHA4 antagonist for use in treating ocular inflammatory conditions” (AXEROVISION, INC., priority 2015, dated 2019).

As a reminder, the Kd is the concentration at which binding is half-saturated. High values mean lower affinity, low ones higher affinity. The IC50 is the concentration that gives 50% inhibition.

One assay deals with T1, Human α4β1 (Homo sapiens, UniProt P05556+P13612).
T1 construct: characterized in human J6 cells which express VLA-4; endogenous in cells; host or cells: Jurkat J6 cells (human lymphoblast cell line)
Briefly: J6 saturation binding assay (filtration) with [3H]GW559090. The conditions noted are these: [3H]GW559090, J6 cells; geometric mean and 95% CL, 4 experiments. As to the method: (§1) Jurkat J6 cells (human lymphoblast cell line) were grown as a suspension culture in RPMI 1640 supplemented with FCS (10%) and glutamine (2 mM). RPMI8866 cells (human B lymphoid cell line) were grown as a suspension culture in RPMI 1640 supplemented with FCS (10%) and glutamine (2 mM). RBL-2H3 cells (rat basophilic cell line) were cultured in Eagle's MEM plus Earles salts supplemented with 2 mM L-glutamine, 1 mM sodium pyruvate, 1× non-essential amino acids, 1 mM Na pyruvate 10% heat inactivated foetal calf serum.
Binding of the compound of formula I was characterized in human J6 cells which express VLA-4. J6 cells were harvested by centrifugation for 5 minutes at 500 g and resuspended in assay buffer (50 mM HEPES, pH 7.5, 100 mM NaCl, 2 mM glucose, 1 mM MnCl2). Each well contained 1×10^6 cells and either 10 μM cold GW559090, to define the NSBs (non-specific binding), or buffer. […] Bound [3H]GW559090 was separated from free by rapid vacuum filtration through pre-soaked Whatman GF/B filters, followed by three washes in ice-cold buffer, scintillant was then added to filter discs and disintegrations per minute measured on a Beckman Scintillation counter. […] GW559090 added for each concentration of the saturation curve was measured by counting disintegrations from a 50 μL aliquot of the label dilution range.

A further assay has as its target T2, α4β7-MAdCAM (Homo sapiens, UniProt P13612+P26010).
T2 construct: endogenous in cells; host or cells: RPMI 8866 cells (human B lymphoid cell line)
T2 sequence (P13612 34-1032): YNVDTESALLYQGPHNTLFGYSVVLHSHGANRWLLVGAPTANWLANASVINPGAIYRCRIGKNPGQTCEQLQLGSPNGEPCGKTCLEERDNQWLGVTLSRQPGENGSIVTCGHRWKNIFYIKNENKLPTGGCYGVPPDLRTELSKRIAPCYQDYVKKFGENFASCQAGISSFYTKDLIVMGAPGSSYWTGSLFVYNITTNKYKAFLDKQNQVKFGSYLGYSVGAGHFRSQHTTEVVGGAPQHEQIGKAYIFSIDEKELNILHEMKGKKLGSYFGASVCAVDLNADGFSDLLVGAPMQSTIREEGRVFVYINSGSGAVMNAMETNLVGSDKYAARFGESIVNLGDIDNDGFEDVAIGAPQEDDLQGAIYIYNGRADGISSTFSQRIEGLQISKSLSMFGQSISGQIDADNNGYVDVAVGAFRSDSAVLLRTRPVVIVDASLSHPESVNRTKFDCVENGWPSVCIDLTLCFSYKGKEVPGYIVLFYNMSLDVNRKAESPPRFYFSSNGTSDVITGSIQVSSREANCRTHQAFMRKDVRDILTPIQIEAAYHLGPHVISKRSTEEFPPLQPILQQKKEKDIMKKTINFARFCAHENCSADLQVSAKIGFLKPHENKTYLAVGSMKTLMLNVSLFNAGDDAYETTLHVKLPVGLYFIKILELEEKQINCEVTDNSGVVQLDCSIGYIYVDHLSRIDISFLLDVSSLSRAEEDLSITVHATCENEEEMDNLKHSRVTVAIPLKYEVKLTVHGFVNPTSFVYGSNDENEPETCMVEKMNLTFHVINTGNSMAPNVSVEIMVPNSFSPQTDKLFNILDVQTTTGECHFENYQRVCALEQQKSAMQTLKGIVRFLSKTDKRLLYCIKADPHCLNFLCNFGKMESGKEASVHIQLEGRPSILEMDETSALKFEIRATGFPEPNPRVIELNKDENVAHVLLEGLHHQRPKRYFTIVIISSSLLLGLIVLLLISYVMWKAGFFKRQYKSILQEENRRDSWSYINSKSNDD
T2 sequence (P26010 20-798): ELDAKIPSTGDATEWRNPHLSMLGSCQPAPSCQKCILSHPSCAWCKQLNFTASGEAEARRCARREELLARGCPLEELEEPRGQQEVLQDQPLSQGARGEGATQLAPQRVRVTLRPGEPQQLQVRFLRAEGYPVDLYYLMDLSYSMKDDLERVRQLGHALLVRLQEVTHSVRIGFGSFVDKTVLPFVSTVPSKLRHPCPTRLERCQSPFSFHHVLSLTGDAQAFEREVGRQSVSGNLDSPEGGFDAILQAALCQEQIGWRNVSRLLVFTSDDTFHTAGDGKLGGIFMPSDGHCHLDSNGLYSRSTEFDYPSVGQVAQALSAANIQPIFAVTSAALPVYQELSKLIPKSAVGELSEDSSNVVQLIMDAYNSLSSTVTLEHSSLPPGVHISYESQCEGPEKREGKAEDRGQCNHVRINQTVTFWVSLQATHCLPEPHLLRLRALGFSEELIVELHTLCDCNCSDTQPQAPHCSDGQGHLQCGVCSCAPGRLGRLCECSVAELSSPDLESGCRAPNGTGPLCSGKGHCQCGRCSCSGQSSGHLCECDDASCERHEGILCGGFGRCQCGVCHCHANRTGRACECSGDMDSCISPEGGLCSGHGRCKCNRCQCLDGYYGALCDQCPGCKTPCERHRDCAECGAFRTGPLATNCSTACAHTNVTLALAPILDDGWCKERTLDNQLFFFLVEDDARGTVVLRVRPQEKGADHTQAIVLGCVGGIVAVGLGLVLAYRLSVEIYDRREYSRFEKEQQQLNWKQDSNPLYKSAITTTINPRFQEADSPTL
Briefly: MAdCAM cell adhesion assay, RPMI 8866 cells. In kind it is cell-based. The note with it: RPMI 8866 cells to MAdCAM; read-out: Inhibition of cell adhesion (IC50). The protocol: as §1
Polystyrene 96-well microtitre plates were coated with IgG at a concentration of 0.05 mg/mL in bicarbonate buffer for 2.5 hours at 37° C. The solution was aspirated and the plates washed twice with PBS. The plates were then incubated overnight at 4° C. with MAdCAM at a concentration of 204.0 ng/mL in 3% BSA in PBS. Prior to use the MAdCAM was aspirated and the plates washed twice with PBS. J6 or RPMI cells (as required) were labelled with the fluorescent dye BCECF-AM (10 μM and 6×10^6 cells/mL) for 10 min at 37° C. before the excess was removed by centrifugation at 500 g for 5 min and the cells resuspended at a cell concentration of 1.2×10^7 cells/mL in HBSS. Equal volumes of HBSS containing the compound of formula I (over concentration range 38.1 pM to 10 μM) and cells were added to the MAdCAM coated plates. […] The plates were counted in a Wallac Viktor.

T1 sequence (P05556 21-798, one chain of several): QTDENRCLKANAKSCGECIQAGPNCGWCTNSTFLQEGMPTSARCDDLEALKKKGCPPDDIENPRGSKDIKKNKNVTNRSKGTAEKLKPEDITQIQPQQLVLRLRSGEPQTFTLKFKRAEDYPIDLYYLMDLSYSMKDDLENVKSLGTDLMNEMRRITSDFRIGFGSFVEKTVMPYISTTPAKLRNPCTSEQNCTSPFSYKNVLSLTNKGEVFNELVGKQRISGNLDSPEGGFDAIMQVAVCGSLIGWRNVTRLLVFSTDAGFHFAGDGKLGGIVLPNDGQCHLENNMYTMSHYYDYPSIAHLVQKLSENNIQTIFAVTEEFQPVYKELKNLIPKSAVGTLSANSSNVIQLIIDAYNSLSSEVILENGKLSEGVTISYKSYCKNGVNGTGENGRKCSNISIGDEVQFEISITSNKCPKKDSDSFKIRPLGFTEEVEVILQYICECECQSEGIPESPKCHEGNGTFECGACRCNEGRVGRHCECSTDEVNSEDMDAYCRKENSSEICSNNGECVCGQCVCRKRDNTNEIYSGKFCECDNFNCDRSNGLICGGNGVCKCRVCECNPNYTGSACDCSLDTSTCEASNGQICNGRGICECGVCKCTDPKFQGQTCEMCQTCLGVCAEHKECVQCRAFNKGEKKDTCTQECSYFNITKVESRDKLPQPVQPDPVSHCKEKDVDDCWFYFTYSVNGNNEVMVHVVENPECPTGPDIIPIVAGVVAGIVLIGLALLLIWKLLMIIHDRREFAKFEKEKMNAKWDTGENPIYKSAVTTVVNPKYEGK

The compound `Cc1ccccc1OCC(=O)N[C@@H](CC(C)C)C(=O)N[C@@H](Cc1ccc(OC(=O)N2CCC(C(N)=O)CC2)cc1)C(=O)O` [GW559090, (2S)-3-[4-({[4-(Aminocarbonyl)-1-piperidinyl]carbonyl}oxy)phenyl]-2-[((2S)-4-methyl-2-{[2-(2-methylphenoxy)acetyl]amino}pentanoyl)amino]propanoic acid] had a Kd at Human α4β1 of 0.19 nM. The concentration for half-maximal inhibition (IC50) at α4β7-MAdCAM came to 23 nM.
